Measured values published in paper doi:10.1101/2025.10.13.682046v1 (biorxiv, 2025).

Biological target: CIP2A(1-560) (Homo sapiens, UniProt Q8TCG1)
Test: microscale thermophoresis
Type: binding

Kd [µM] | Structure (SMILES)
4.2 | CC(C)=CCC/C(C)=C/Cc1c(O)c(CC=C(C)C)c2c(c1O)C(=O)C1=C[C@@H]3C[C@H]4C(C)(C)O[C@@](C/C=C(/C)C(=O)NCCCCCNC(=O)CCCC[C@@H]5SC[C@@H]6NC(=O)N[C@@H]65)(C3=O)[C@@]14O2 [bGNA, biotinylated gambogenic acid]
8.4 | CC(C)=CCC[C@]1(C)C=Cc2c(O)c3c(c(CC=C(C)C)c2O1)O[C@]12C(=C[C@@H]4C[C@H]1C(C)(C)O[C@@]2(C/C=C(/C)C(=O)N1CCOCC1)C4=O)C3=O [DAP-19]

Structure (SMILES) | Kd [µM]
CC(C)=CCC[C@]1(C)C=Cc2c(O)c3c(c(CC=C(C)C)c2O1)O[C@]12C(=C[C@@H]4C[C@H]1C(C)(C)O[C@@]2(C/C=C(/C)C(=O)O)C4=O)C3=O [GIA, Gambogic acid] | 4.6
